≈ marks a conversion by molar mass, not a printed value.
Experiments:
[1] = Aqueous solubility at 25° C. of carvedilol and its salt forms; conditions: water
[2] = pKa of carvedilol free base; assay type: physicochemical
physchem [3] = conditions: 25 °C, water, thermodynamic from solid
physchem [4] = experiment: physchem

For Hydrochloride, the “aqueous solubility (in words)” value [1] was “poorly soluble in water”, the “Aqueous Solubility” value ([1]; time 0.5 hr) was 1650 µg/mL and the “Aqueous Solubility” value ([1]; time 1 hr) was 1630 µg/mL. The “Aqueous Solubility” value ([1]; time 4 hr) was 1370 µg/mL and the “Aqueous Solubility” value ([1]; time 70 hr) was 1060 µg/mL.

In the case of `COc1ccccc1OCCNCC(O)COc1cccc2[nH]c3ccccc3c12` (stereo not shown) [Carvedilol], the pKa [2] is reported as 7.6, the solubility at 1 hr (physchem [3]) is reported as 9.8 µg/mL (≈ 24.1 µM) and the solubility at 24 hr (physchem [3]) is reported as 11.6 µg/mL (≈ 28.5 µM). The solubility (physchem [4]; pH 4, aqueous buffer) was ~200 µg/mL (≈ 492 µM) and the solubility (physchem [4]; pH 9, aqueous buffer) was < 1 µg/mL.

— US6515010B1 (SmithKline Beecham Corporation, priority 1999, dated 2003)
